Measured values as given in publication PMC9635925, “Biological screening of a unique drug library targeting MRGPRX2” (Frontiers in Immunology, 2022).
Substitutions are numbered along the chain they refer to. Where a name gives a salt, the structure may show the parent alone.

Experiments:
[1] = molecular target: T1, MRGPRX2-WT (wild-type MRGPRX2 receptor) (Homo sapiens, UniProt Q96LB1); assay: Primary HTS, Ca2+ mobilization (fluorescence ratio, B-score) in HEK293-Gα15 cells stably expressing wild-type MRGPRX2; format: cell-based; details: 10 μM compound
T1 construct: expressed in transfected cells
T1 sequence (Q96LB1 1-330): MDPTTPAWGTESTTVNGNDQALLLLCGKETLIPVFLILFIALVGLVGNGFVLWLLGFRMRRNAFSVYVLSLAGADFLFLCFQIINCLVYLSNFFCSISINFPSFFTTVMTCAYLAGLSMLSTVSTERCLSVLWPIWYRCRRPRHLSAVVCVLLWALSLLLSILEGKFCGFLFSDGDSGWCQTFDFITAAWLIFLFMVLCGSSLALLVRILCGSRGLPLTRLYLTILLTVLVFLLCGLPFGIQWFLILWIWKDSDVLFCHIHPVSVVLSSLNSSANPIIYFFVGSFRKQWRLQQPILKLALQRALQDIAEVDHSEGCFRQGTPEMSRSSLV
Experimental: (§1) We performed an experimental HTS on the Johns Hopkins Drug Library, which includes 1,811 (57%) FDA-approved drugs among 3,456 total compounds (28% of all known drugs worldwide) ([15]). We performed the HTS at the Johns Hopkins University ChemBioCORE Facility and employed HEK293-Gα15 cell lines that stably expressed MRGPRX2 protein.
(§2) We utilized 10 μM compounds (each compound was tested in triplicate) and calculated the compound effect using the signal-to-background fluorescence ratio (see Supplementary Methods).
(§3) In the HTS, we determined MRGPRX2 activation by a Ca^2+ mobilization assay that recorded a fluorescence change by utilizing a Functional Drug Screening System (FDSS 6000; Hamamatsu); we evaluated the compound effect using the calculated fluorescence ratio. We further applied the B-score normalization, which provided robust corrections for variation in fluorescence ratio ([22]).
(§4) We performed an experimental high-throughput screening (HTS) on the Johns Hopkins Drug Library (JHDL), which includes 1,811 (57%) FDA-approved drugs among 3,456 total compounds (28% of all known drugs worldwide). The remaining compounds in JHDL are catalogued in one or more of the resources below: British Approved Names (BAN); Dénominations Communes Françaises (DCF); International Nonproprietary Names (INN); Japanese Adopted Names (JAN); MI (Merck Index); National Formulary drug name (NF); and United States Accepted Names (USAN). The JHU drug library is stocked in 96 well plates at 10 mM in 100% DMSO and stored at -80 °C. We used a final concentration of 10 uM for each compound and DMSO concentration of 0.1% (tested in triplicate). […] We evaluated compound effect using the calculated fluorescence ratio. We further calculated B-scores, which are a relative potency score similar to Z scores in that they are the ratio of an adjusted raw value in the numerator to a measure of variability in the denominator.

[2] = molecular target: T2, MRGPRX2-MUT (MRGPRX2 N62S mutation) (Homo sapiens, UniProt Q96LB1, N62S); assay: Primary HTS, Ca2+ mobilization (fluorescence ratio, B-score) in HEK293-Gα15 cells stably expressing the MRGPRX2 N62S mutation; format: cell-based; details: for B-scores (MUT): 10 μM compound, MRGPRX2-MUT (N62S) cells; for Change of B-scores (%): 10 μM
T2 construct: expressed in transfected cells
T2 sequence (Q96LB1 1-330 N62S): T1 sequence (Q96LB1 1-330) with N62S
Experimental: as §1, §2, §3, §4

[3] = MRGPRX2-MUT in comparison to MRGPRX2-WT cells, Supplementary Table 1
[4] = MRGPRX2-MUT in comparison to MRGPRX2-WT cells, Table 1
[5] = MRGPRX2-MUT versus MRGPRX2-WT cells, Supplementary Table 2

Compound	B-scores (WT) ([1]; Supplementary Table 1)	B-scores (WT) ([1]; Table 1)	B-scores (MUT) ([2]; Supplementary Table 1)	B-scores (MUT) ([2]; Table 1)	Change of B-scores (%) [2, 3] [%]	Change of B-scores (%) [2, 4] [%]	B-scores (WT) ([1]; Supplementary Table 2)	B-scores (MUT) ([2]; Supplementary Table 2)	Change of B-scores (%) [2, 5] [%]
CN1CCCC(n2nc(Cc3ccc(Cl)cc3)c3ccccc3c2=O)CC1 (centres unmarked) [Azelastine Hydrochloride]	36.21	36.21	3.47	3.47	-90.42	-90.42			
CN1[C@@H]2CC[C@H]1C[C@@H](OC(c1ccccc1)c1ccccc1)C2 [Benztropine Methanesulfonate]	26.25		2.81		-89.29				
CN1[C@@H]2CC[C@H]1C[C@@H](OC(c1ccccc1)c1ccccc1)C2 [Benztropine]	21.42		1.35		-93.68				
CC(C[N+](C)(C)C)OC(N)=O (centres unmarked) [Bethanechol Chloride]	19.27		37.55		94.89				
CN(C)CCOC(c1ccccc1)c1ccc(Br)cc1.Cl (centres unmarked) [Bromazine hydrochloride]							11.37	-0.05	-100.41
CN(C)CCC(c1ccc(Br)cc1)c1ccccn1 (centres unmarked) [Brompheniramine]	18.22	18.22	0.64	0.64	-96.48	-96.48	18.22	0.64	-96.48
C[N+](C)(C)CCOC(N)=O [Carbachol]	42.55		63.57		49.41		42.55	63.57	49.41
CN(C)CCOC(c1ccc(Cl)cc1)c1ccccn1 (centres unmarked) [Carbinoxamine Maleate]	38.93	38.93	1.49	1.49	-96.18	-96.18		1.49	-94.84
CN(C)CCOC(c1ccc(Cl)cc1)c1ccccn1 (centres unmarked) [Carbinoxamine]							11.13	0.12	-98.93
CC(=O)O.CC(=O)O.CC[C@H](C)C[C@H](C)CCCCCCCCC(=O)N[C@H]1C[C@@H](O)[C@@H](NCCN)NC(=O)[C@@H]2[C@@H](O)CCN2C(=O)[C@H]([C@H](O)CCN)NC(=O)[C@H]([C@H](O)[C@@H](O)c2ccc(O)cc2)NC(=O)[C@@H]2C[C@@H](O)CN2C(=O)[C@H]([C@@H](C)O)NC1=O [Caspofungin acetate]	29.98		16.90		-43.63				
COc1ccc2cc1Oc1ccc(cc1)C[C@H]1c3c(cc4c(c3Oc3cc5c(cc3OC)CCN(C)[C@@H]5C2)OCO4)CCN1C [Cepharanthine]	19.73	19.73	1.14	1.14	-94.20	-94.20			
CN(C)CCN(Cc1ccc(Cl)cc1)c1ccccn1.Cl [Chloropyramine Hydrochloride]							14.6	3.24	-77.83
CN(C)CCC(c1ccc(Cl)cc1)c1ccccn1 (centres unmarked) [Chlorpheniramine]							9.6	0.88	-90.88
CN(C)CCCN1c2ccccc2Sc2ccc(Cl)cc21 [Chlorpromazine Hydrochloride]							7.97	2.69	-66.27
CN(C)CCCN1c2ccccc2Sc2ccc(Cl)cc21 [Chlorpromazine]							10.2	-0.05	-100.54
